This test has as its system small cell lung cancer. Description: 3D clonogenic assay, Example 1, small cell lung cancer. The class given is cell-based. The following applies: n=7 models. How it is done:
In the present study, plinabulin was characterized for its ability to inhibit anchorage independent growth and ex vivo colony formation of tumor cells in semi-solid medium. The compound was investigated in 87 out of 93 originally planned tumor xenografts representing all major cancer types using a 3D clonogenic assay in a 96-well format with colony count based on image analysis as read-out. By using this assay, the investigational compound was assessed for the ability to inhibit anchorage independent growth and ex vivo colony formation of tumor cells in semi-solid medium.
A master stock solution of plinabulin was prepared by dissolving the compound in DMSO at a concentration of 9.9 mM. Working stock solutions were prepared by diluting the master stock solution with DMSO to a concentration of 0.99 mM (330-fold the highest test concentration). Small aliquots of the master and working stock were stored at −20° C. […]
Plinabulin was investigated in 87 PDX models representing a number of cancer types. […] The percentage of viable cells was determined in a Neubauer-hemocytometer using trypan blue exclusion. […]
The clonogenic assay was carried out in a 96 well plate format using ultra low attachment plates. […] Cultures were incubated at 37° C. and 7.5% CO2 in a humidified atmosphere 13 days in total and monitored closely for colony growth using an inverted microscope. […]

Data on one compound can be found in patent US20240408082A1, “METHODS FOR TREATING CANCERS AND TUMORS” (BEYONDSPRING PHARMACEUTICALS, INC., priority 2021, published 2024).

`CC(C)(C)c1[nH]cnc1/C=c1\[nH]c(=O)/c(=C/c2ccccc2)[nH]c1=O` [plinabulin, (3Z,6Z)-3-Benzylidene-6-{[5-(2-methyl-2-propanyl)-1H-imidazol-4-yl]methylene}-2,5-piperazinedione]: the “geom. mean absolute IC70” value was determined as 0.035 µM.
